Data on five molecules can be found in patent US6531499B2, “Matrix metalloproteinase inhibitors and method of using same” (Wisconsin Alumni Research Foundation, priority 1999, dated 2003).

One data set has as its system F442A fibroblast. The data set is classed as cell-based. The following applies: concentrations up to 100 μM; 6 to 24 hours in serum-free medium. The procedure:
Toxicity of the compounds was determined by incubating several log doses of the compound and solvent controls for 6 to 24 hours in serum-free medium. The cell number was then determined by comparing the absorbance of crystal violet with controls, and cell death determined by trypan blue dye exclusion in conventional and well known fashion. The model cell line used was a murine fibroblast cell line designated F442A, which was generously provided by Dr. Howard Green of Harvard University.
The compounds were cleaved from the beads into a single solution and tested in this combined fashion.

The subject of a further data set is HiMel cells. Nature of the data set: In vitro invasion assay: HiMel cell penetration of […] (Transwell). Type of data set: cell-based, human. The following applies: same assay as Example 3; concentration not given. The source says:
An 8 μm pore filter coated with “[…]” separates a series of lower compartments containing a chemoattractant and a corresponding series of upper compartments containing metastatic and non-metastatic cells and a compound to be tested. The metastatic cells are able to degrade the “[…]” barrier and, over a period of time, migrate through the pores of the filter whereas non-metastatic cells remain on the upper surface. The cells that pass to the underside of the filter are counted under a microscope to determine the extent to which they are able to pass from the upper compartment into the lower compartment. […]
This method has been refined to increase the number of assays which may be performed and analyzed per day. […] Motility of the cells through the 8 μm filters is not by passive diffusion since the pore size is smaller than the cells, and is determined in the same chamber in the absence of “[…]”. […]
Compounds to be tested were dissolved in DMSO and were added in serial dilutions of 0 (control) 1, and 10 μM. […] Invasive cells found on the under side of the filter were measured by solubilizing the stain in 10% acetic acid 20% methanol and reading the absorbance at 595 nm.

Another data set concerns the target T1, MMP-2 (Homo sapiens, UniProt P08253).
T1 sequence (P08253 110-660): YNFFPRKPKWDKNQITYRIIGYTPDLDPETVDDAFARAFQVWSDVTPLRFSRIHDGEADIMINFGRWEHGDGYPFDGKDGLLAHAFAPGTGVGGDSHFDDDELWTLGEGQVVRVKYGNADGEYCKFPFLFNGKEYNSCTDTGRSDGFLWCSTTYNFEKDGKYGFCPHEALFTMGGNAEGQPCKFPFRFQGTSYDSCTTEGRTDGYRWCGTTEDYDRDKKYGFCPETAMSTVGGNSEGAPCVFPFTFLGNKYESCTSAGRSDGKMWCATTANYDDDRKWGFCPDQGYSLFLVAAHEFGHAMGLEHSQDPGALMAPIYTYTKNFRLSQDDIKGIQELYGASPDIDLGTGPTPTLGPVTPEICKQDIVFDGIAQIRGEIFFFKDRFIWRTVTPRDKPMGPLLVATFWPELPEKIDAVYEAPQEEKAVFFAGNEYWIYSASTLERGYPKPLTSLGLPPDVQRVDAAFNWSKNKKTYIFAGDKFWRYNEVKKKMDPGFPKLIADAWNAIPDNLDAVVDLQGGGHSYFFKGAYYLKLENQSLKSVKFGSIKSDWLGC
Nature of the data set: Colorimetric 96-well thiopeptolide collagenase assay. The data set is classed as biochemical. The following applies: change in absorbance at 405 nm. The procedure: The preferred assay method to measure MMP inhibitory activity is a colorimetric assay which can be monitored spectrophotometrically. Specifically, the ability of the subject matrix metalloproteinase inhibitors to suppress MMP-2 or MMP-9 activity is assessed using a colorimetric 96-well thiopeptolide collagenase assay as described by Xia et al. (Xia T, Akers K, Eisen A Z and Seltzer J L. (1996) Biochim et Biophy Acta. 1293:259). This protocol entails the cleavage of a thiopeptolide substrate AcProLeuGly-S-LeuGlyOC2H5 (Bachem Bioscience, Cat # H7145) by MMP-2 or MMP-9, giving a free sulfhydryl group. The free —SH then reacts with DTNB (Ellman's reagent, 5,5′-dithio-bis(2-nitrobenzoic acid)) giving a colored molecule whose formation can be examined spectrophotometrically at 405 nm.
The thiopeptolide substrate (5 μL/well, 5 mM in DMF), DTNB (15 μL/well, 10 mM in 50 mM HEPES, 10 mM CaCl2, pH 6.92), and matrix metalloproteinase inhibitors or DMSO (total volume equal to 5 μL/well) are mixed in a 96-well plate (Falcon). A single row of wells is used for each matrix metalloproteinase inhibitor and various inhibitor concentrations are used to control for row to row variation in collagenase activity. The reaction is then initiated by pipeting 130 μL of a solution of collagenase buffer (126 μL/well, 50 mM HEPES, 10 mM CaCl2, pH 6.92) and activated MMP-2 or MMP-9 (4 μL/well, 0.05 M borate, pH 7.46, 5 mM CaCl2 , 20% glycerol, 0.0005% Brij-35) into a row of wells using a 12-channel multipipeter. The change in absorbance from 0-20 minutes is then monitored at 405 nm using an ELX 800 automated microplate reader (Bio-Tek Instruments, Inc., Winooski, Vt.). The change in absorbance is calculated and graphed.
The thiopeptolide substrate AcProLeuGly-S-LeuGlyOC2H5 (5 μL/well, 5 mM in DMF), DTNB (15 μL/well, 10 mM in 50 mM HEPES, 10 mM CaCl2, pH 6.92), and matrix metalloproteinase inhibitors or DMSO (total volume equal to 5 μL/well) were mixed in a 96-well plate. A single row of wells was used for each concentration of the test compound and concentrations of 10, 20, and 40 μM of the test compound were used. The reaction was then initiated by pipeting 130 μL of a solution of collagenase buffer (126 μL/well, 50 mM HEPES, 10 mM CaCl2, pH 6.92) and activated MMP-2 (4 μL/well, 0.05 M borate, pH 7.46, 5 mM CaCl2, 20% glycerol, 0.0005% Brij-35) into a row of wells using a 12-channel multipipeter. The change in absorbance from 0-20 minutes was then monitored at 405 nm. The change in absorbance was calculated and graphed; the results are depicted in FIG. 4.

Where [1] appears, read: 0 (control), 40, 80, and 160 μM.

In the case of `O=C(CN(Cc1ccccc1)C(=O)CN(CCCc1ccccc1)C(=O)Nc1ccc(Oc2ccccc2)cc1)NO`, the “effect on the growth / viability of fibroblasts” value with F442A fibroblast was “no significant effect”. Besides, in the data set on HiMel cells, the “inhibition of HiMel MATRIGEL invasion as compared to the control” value is recorded as “approximately 50%”. Besides, the “inhibition of MMP-2 collagenase activity” value at MMP-2 (10, 20, and 40 μM, 0-20 minutes) is listed as “inhibited MMP-2 collagenase activity in a dose-dependent manner”.
`O=C(CN(CCCCc1ccccc1)C(=O)CN(CCCc1ccccc1)C(=O)Nc1ccc(Oc2ccccc2)cc1)NO`: in the data set on F442A fibroblast, the “effect on the growth / viability of fibroblasts” value is reported as “no significant effect”. Further, the “inhibition of MMP-2 collagenase activity” value against MMP-2 (setting [1]) was “inhibits MMP-2 collagenase activity in a dose-dependent fashion”.
Turning to `NC(=O)CN(Cc1ccccc1)C(=O)CN(CCCc1ccccc1)C(=O)Nc1ccc(Oc2ccccc2)cc1`, the “inhibition of MMP-2 collagenase activity” value against MMP-2 (setting [1]) was “inhibits MMP-2 collagenase activity in a dose-dependent fashion”.
For `O=C(Nc1ccc(Oc2ccccc2)cc1)Nc1ccc(Oc2ccccc2)cc1`, the “inhibition of MMP-2 collagenase activity” value against MMP-2 (setting [1]) is listed as “inhibits MMP-2 collagenase activity in a dose-dependent fashion”.
`O=C(Nc1ccc(Oc2ccccc2)cc1)Nc1ccc(-c2ccccc2)cc1`: the “inhibition of HiMel MATRIGEL invasion as compared to the control” value in the data set with HiMel cells was “approximately 50%”. The “inhibition of MMP-2 collagenase activity” value against MMP-2 (setting [1]) is “inhibits MMP-2 collagenase activity in a dose-dependent fashion”.
